Data on 15 compounds can be found in the Kinase Knowledgebase extract (Sharma et al. 2016).

Structures are written as SMILES.

The target of experiment [1] is CDK2 (Human) (UniProt P24941). Kind of experiment: Enzyme Assay.
For experiment [2], the target named is CDK2 (Human) (UniProt P24941). Kind of experiment: Enzyme Assay. This is another data set of the same source.

Broadly, the IC50 is the concentration at which inhibition is half-maximal. On to `Cn1cc(C2=C(c3cn(CCCSC(=N)N)c4ccccc34)C(=O)NC2=O)c2ccccc21`, for which the IC50 against CDK2 (Human) [1] was 0.147 µM; against CDK2 (Human) [2] it was 0.318 µM.
Regarding `O=C1Nc2ccccc2C1=C1Nc2ccccc2C1=NOCCC(O)CO` (stereo not drawn), the IC50 against CDK2 (Human) [2] worked out at 0.93 µM.
On to `CC(C)[C@H](CO)Nc1nc(Nc2cccc(Cl)c2)c2ncn(C(C)C)c2n1`, for which the IC50 amounted to 0.503 µM against CDK2 (Human) [1] and 0.204 µM at CDK2 (Human) [2].
For `CCCCCCCCCCCCCCCCn1cc[n+](Cc2ccccc2)c1C`, the IC50 against CDK2 (Human) [1] is 3.91 µM; at CDK2 (Human) [2], 24.5 µM.
The corresponding values for `CC(C)n1cnc2c(NCc3ccccc3O)nc(NCCCO)nc21` are 1.21 µM and 0.506 µM.
In the same order, the values of `COc1cc(Nc2ncc3ccn(-c4cccc(CCC#N)c4)c3n2)cc(OC)c1OC` are over 25 µM and over 25 µM.
On to `Cc1ccc([N+](=O)[O-])cc1S(=O)(=O)N(C)/N=C/c1cnc2ccc(Br)cn12`, for which the results for the IC50 on CDK2 (Human) [1] and on CDK2 (Human) [2] were 0.168 µM and 0.278 µM, respectively.
The corresponding values for `O=C1Nc2ccc(I)cc2/C1=C1/Nc2ccccc2/C1=N\O` are 1.52 µM and 0.379 µM.
The corresponding values for `CC(=O)O/N=C1/C(=C2/C(=O)Nc3cc(Br)ccc32)Nc2ccccc21` are 78.3 µM and 0.787 µM.
Regarding `O=C1Nc2ccc3ncsc3c2/C1=C/c1cnc[nH]1`, the IC50 worked out at 0.094 µM at CDK2 (Human) [1] and 0.135 µM against CDK2 (Human) [2].
As for `O=C1NC(=O)c2c1c1c3ccccc3n3c1c1c2c2ccccc2n1C1CCC3O1`, the concentration for half-maximal inhibition (IC50) against CDK2 (Human) [1] was found to be 0.283 µM; against CDK2 (Human) [2], 0.871 µM.
The corresponding values for `CC(C)c1[nH]n(-c2c(Cl)cccc2Cl)c2nc(Cc3ccc(OCCO)cc3)nc(=O)c1-2` are 0.067 µM and 0.141 µM.
`NC1=NC(=O)/C(=C2\CCNC(=O)c3[nH]c4ccccc4c32)N1`: the IC50 on CDK2 (Human) [2] turned out to be 1.28 µM. This lies in the single-digit micromolar range.
As to `CCN(CC)C(=O)c1ccc(Nc2nc(OCC3CCCCC3)c3[nH]cnc3n2)cc1`, the IC50 against CDK2 (Human) [1] came to 6.47 µM; against CDK2 (Human) [2], 4.49 µM.
Take `N#CCCc1ccc2c(c1)-c1[nH]c3ccc([N+](=O)[O-])cc3c1CC(=O)N2`: the IC50 against CDK2 (Human) [1] was 0.216 µM; at CDK2 (Human) [2], 0.333 µM.
